In PubChem BioAssay (NCI):
“And” between values parts separate entries of the source, which are not always exact repeats. Equal values may be shown once.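 Following 48 hours of exposure in 96-well plates, responses at five concentrations were used to interpolate endpoints linearly. GI50: concentration for 50% inhibition of growth. Definition used: TGI = concentration required for complete inhibition of growth.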

What was measured:
Test in all cases: NCI anticancer screen, dose series, 48 h
NCI-H226 lung = system: NCI-H226 lung
NCI-H522 lung = system: NCI-H522 lung
M14 melanoma = system: M14 melanoma
OVCAR-4 ovarian = system: OVCAR-4 ovarian
TK-10 renal = system: TK-10 renal
SK-OV-3 ovarian = system: SK-OV-3 ovarian
U251 CNS = system: U251 CNS
CCRF-CEM leukemia = system: CCRF-CEM leukemia
HCC-2998 colon = system: HCC-2998 colon
K-562 leukemia = system: K-562 leukemia

Compound | TGI (NCI-H226 lung) | TGI (NCI-H522 lung) | TGI (M14 melanoma) | TGI (OVCAR-4 ovarian) | TGI (TK-10 renal) | TGI (SK-OV-3 ovarian) | TGI (U251 CNS) | TGI (CCRF-CEM leukemia) | TGI (HCC-2998 colon) | TGI (K-562 leukemia) | GI50 (NCI-H226 lung) | GI50 (NCI-H522 lung) | GI50 (M14 melanoma) | GI50 (OVCAR-4 ovarian) | GI50 (TK-10 renal) | GI50 (SK-OV-3 ovarian) | GI50 (U251 CNS) | GI50 (CCRF-CEM leukemia) | GI50 (HCC-2998 colon) | GI50 (K-562 leukemia)
COC(=O)C1CCC(Nc2cccc(C(F)(F)F)c2)=N1 (stereo not given) | > 100 µM | > 100 µM | > 100 µM | > 100 µM | > 100 µM | > 100 µM | > 100 µM | > 100 µM | > 100 µM | > 100 µM |  |  |  |  |  |  |  |  |  | 
O=C(O)CCCCn1cnc2c(=S)nc[nH]c21 | > 100 µM | > 100 µM | > 100 µM | > 100 µM | > 100 µM | > 100 µM | > 100 µM | > 100 µM | > 100 µM | > 100 µM |  |  |  |  |  |  |  |  |  | 
N#CN1CCC[C@H]1C(=O)N1CCc2c(-c3[nH]nc4ncccc34)cccc21 | 0.219 µM | 0.412 µM | 0.354 µM | 13.3 µM | 4.17 µM | 0.0694 µM | 2.91 µM | 28.4 µM | 11.6 µM | > 37.8 µM | 0.051 µM | < 0.01 µM | < 0.01 µM | < 0.01 µM | 0.525 µM | 0.013 µM | 0.281 µM | < 0.01 µM | 0.12 µM | < 0.01 µM
CC1=C(c2cc(C(=O)Nc3ccc(Cl)c(Cl)c3)nc(N)n2)Sc2ccccc2N1 | > 100 µM | > 100 µM | > 100 µM | > 100 µM | > 100 µM | > 100 µM | > 100 µM | > 100 µM | > 100 µM | > 100 µM |  |  |  |  |  |  |  |  |  | 
C=C1CCC2C3(C)COC(c4ccc(SC)cc4)OC3CCC2(C)C1C/C=C1/C(=O)OCC1O (stereo not given) | 25.7 µM | 5.98 µM | 17.7 µM | 18.7 µM | 29.9 µM | 32 µM | 5.7 µM | 13.7 µM | 24.9 µM | 12.2 µM | 7.85 µM | 1.92 µM | 6.53 µM | 5.81 µM | 14 µM | 16.3 µM | 2.29 µM | 2.92 µM | 11.9 µM | 2.66 µM
Cc1ccccc1N=Nc1c(O)[nH]c2ccccc12 | > 100 µM | > 100 µM | > 100 µM | > 100 µM | > 100 µM | > 100 µM | > 100 µM | > 100 µM | > 100 µM | > 100 µM |  |  |  |  |  |  |  |  |  | 
O=C1/C(=C/c2ccccc2)CCC/C1=C\c1ccccc1 | 13.8 µM and 35.1 µM and 33 µM | 11.8 µM and 31.8 µM and 35 µM | 12.9 µM and 19 µM and 7.88 µM | 11.8 µM and 32.4 µM | 11.9 µM and 33.2 µM and 40 µM | 12 µM and 43.1 µM and 46.7 µM | 11.5 µM and 14.8 µM and 12.9 µM | 36.5 µM and 51.1 µM and > 100 µM | 25.8 µM and 7.64 µM | 36.5 µM and 32.9 µM and > 100 µM | 7.83 µM and 12.5 µM | 6.46 µM and 13.7 µM and 15.7 µM | 2.96 µM | 6.18 µM | 6.12 µM | 6.28 µM | 3.33 µM | 18.5 µM | 2.72 µM | 20.3 µM and 4.56 µM
COC(=O)[C@@]1(C)CC[C@]2(C)CC[C@]3(C)C4=CC=C5C(=CC(=O)C(O)=C5C)[C@]4(C)CC[C@@]3(C)[C@@H]2C1 | 0.739 µM | 0.435 µM | 0.49 µM | 0.424 µM | 0.449 µM | 2.01 µM | 0.321 µM | 0.745 µM | 0.474 µM | 0.715 µM | 0.294 µM | 0.18 µM | 0.198 µM | 0.153 µM | 0.185 µM | 0.775 µM | 0.173 µM | 0.21 µM | 0.21 µM | 0.251 µM
O=C(O)CCC1(Br)CCCCC(Br)C1=O (stereo not given) | > 100 µM | > 100 µM | > 100 µM | > 100 µM | > 100 µM | > 100 µM | > 100 µM | > 100 µM | > 100 µM | > 100 µM |  |  |  |  |  |  |  |  |  | 
O=C(c1cccs1)c1c(C(F)(F)F)n([O-])c2ccc(F)cc2[n+]1=O | 3.39 µM | 2.88 µM | 3 µM | 2.75 µM | 3.06 µM | 3.59 µM | 2.6 µM | 1.98 µM | 1.98 µM | 0.27 µM | 1.76 µM | 1.46 µM | 1.54 µM | 1.41 µM | 1.41 µM | 1.85 µM | 1.31 µM | 0.662 µM | 0.8 µM | 0.0904 µM
CCOC(=O)c1c(C)n2c(=O)cc(C)c3c(OC(C)=O)c(OC(C)=O)cc1c32 | 35.7 µM | 15.1 µM | 18.2 µM | > 33.7 µM | > 100 µM | 87.5 µM | > 57.7 µM | 6.45 µM | 15.8 µM | > 37.9 µM | 10.1 µM | 4.11 µM | 3.96 µM | 3.29 µM | 15 µM | 11.8 µM | 4.76 µM | 1.44 µM | 2.45 µM | 3.86 µM
COC(=O)c1ccc([N+](=O)[O-])c(O)c1 | > 100 µM | > 100 µM | > 100 µM | > 100 µM | > 100 µM | > 100 µM | > 100 µM | > 100 µM | > 100 µM | > 100 µM |  |  |  |  |  |  |  |  |  | 
COc1ccc(-c2cc(/C=C3\C(=O)Nc4ccc(OC)cc43)[nH]n2)cc1 | > 100 µM | > 100 µM | > 100 µM | > 100 µM | > 100 µM | > 100 µM | > 100 µM | > 100 µM | > 100 µM | > 100 µM | > 100 µM | 11 µM | > 100 µM | > 100 µM | > 100 µM | 73.2 µM | 31.5 µM | > 100 µM | > 100 µM | 0.479 µM
